Measured values from US6410792B1, “Amide derivatives and methods for using the same as selective neuropeptide Y receptor antagonists” (Bayer Corporation, priority 1997, dated 2002).
Structures can show the parent of a compound that is named as a salt. Where two headings read alike, the source gives them in different places.

Columns and labels:
Human NPY1 receptor = target: T1, Human NPY1 receptor (Homo sapiens, UniProt P25929); experiment: Human NPY1 receptor binding assay ([125I]PYY, SK-N-MC cells); settings: [125I]PYY, SK-N-MC cells; read-out: hNPYI IC50
T1 construct: host or cells: SK-N-MC cells
T1 sequence (P25929 1-384): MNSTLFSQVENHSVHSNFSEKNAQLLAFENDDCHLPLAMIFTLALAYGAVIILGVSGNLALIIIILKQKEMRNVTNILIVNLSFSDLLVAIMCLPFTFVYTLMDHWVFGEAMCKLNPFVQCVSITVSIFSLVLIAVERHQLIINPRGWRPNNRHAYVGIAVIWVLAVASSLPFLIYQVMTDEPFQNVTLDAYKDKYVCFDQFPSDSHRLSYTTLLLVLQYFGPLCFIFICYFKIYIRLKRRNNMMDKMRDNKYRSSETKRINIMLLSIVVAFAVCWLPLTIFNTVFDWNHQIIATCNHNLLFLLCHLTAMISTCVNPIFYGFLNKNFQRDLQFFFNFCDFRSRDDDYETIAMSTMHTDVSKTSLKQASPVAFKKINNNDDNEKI
Description: A. Human NPY1 Receptor Binding Assay
This is a modification of Gordon et al., (J. Neurochem. 55:506-513, 1990). SK-N-MC cell (ATCC, Rockville, Md.) were plated in 24-well plates. Once confluent, cells were rinsed with Dulbecco's phosphate buffered saline (DPBS). Cells were then preincubated in binding buffer containing serum-free DMEM, 25 mM HEPES (pH 7.3), 0.5% bovine serum albumin (BSA), 0.1% bacitracin and 0.1 mM phenylmethylsulfonylfluoride for 30 minutes at room temperature. Drug dilution and [125I]PYY (˜50 pM: NEN-DuPont) were added to the wells, and the cells were incubated for an additional 3 hours at room temperature, followed by rinsing with ice-cold DPBS. Nonspecific binding was defined with 1 μM NPY. After lysing the cells with 1% Triton X-100, the amount of radioactivity in the lysates was quantitated with a gamma counter.

Y2 receptor = target: T2, Y2 receptor (Homo sapiens, UniProt P49146); experiment: Y2 receptor binding assay ([125I]PYY, membrane protein); settings: [125I]PYY, membrane protein; read-out: hNPY2 IC50
T2 sequence (P49146 1-381): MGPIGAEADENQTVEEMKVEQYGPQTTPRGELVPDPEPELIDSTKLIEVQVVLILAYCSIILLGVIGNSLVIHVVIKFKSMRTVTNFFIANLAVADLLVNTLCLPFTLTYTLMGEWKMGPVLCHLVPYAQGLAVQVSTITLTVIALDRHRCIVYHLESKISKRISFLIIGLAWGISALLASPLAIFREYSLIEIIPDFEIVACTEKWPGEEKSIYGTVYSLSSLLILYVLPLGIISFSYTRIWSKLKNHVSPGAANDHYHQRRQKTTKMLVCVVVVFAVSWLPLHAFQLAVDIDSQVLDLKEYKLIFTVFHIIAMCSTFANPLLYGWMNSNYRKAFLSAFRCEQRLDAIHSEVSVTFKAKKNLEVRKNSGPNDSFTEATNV
Method in brief: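 Filtration binding with membrane protein and drug dilution, 2 h at room temperature with mixing, radioactivity counted by gamma or scintillation. Y2: 25 pM [125I]PYY in Krebs-Ringer bicarbonate pH 7.4 with 0.01% BSA, nonspecific by 1 μM NPY. Y4/PP1: 50 pM [125I]hPP in HEPES-buffered saline pH 7.4 with protease inhibitors and 0.3% BSA, nonspecific by 1 μM hPP.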

Human NPY5 receptor = target: T3, Human NPY5 receptor (Homo sapiens, UniProt Q15761); experiment: Human NPY5 receptor binding assay ([125I]PYY, membrane protein)
T3 sequence (Q15761 1-445): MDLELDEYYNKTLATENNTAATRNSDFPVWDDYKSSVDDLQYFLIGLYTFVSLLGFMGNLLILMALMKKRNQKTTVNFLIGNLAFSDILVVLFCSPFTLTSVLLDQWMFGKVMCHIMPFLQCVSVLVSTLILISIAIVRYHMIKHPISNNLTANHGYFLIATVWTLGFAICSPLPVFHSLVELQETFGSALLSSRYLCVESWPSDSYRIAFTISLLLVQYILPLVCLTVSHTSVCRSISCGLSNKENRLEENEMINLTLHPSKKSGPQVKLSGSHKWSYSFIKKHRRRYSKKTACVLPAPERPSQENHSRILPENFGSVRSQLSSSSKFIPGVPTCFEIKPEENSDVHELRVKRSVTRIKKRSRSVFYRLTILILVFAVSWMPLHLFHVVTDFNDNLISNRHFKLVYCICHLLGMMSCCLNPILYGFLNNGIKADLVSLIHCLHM
Method in brief: (§1)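 Membrane protein incubated 2 h at room temperature with 75-100 pM porcine [125I]PYY and compound in pH 7.4 Tris buffer with salts, 0.1% BSA and bacitracin. Nonspecific binding with 1 μM PYY. Filtration, then gamma or scintillation counting.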

human Y4/PP1 receptor = human Y4/PP1 receptor (Homo sapiens, UniProt P50391); experiment: Human Y4/PP1 receptor binding assay ([125I]human PP, membrane protein); settings: [125I]human PP, membrane protein; read-out: hNPY4 IC50
Description: B. Human Y2 and Y4/PP1 Receptor Binding Assays
Binding assays were performed on GF/C Millipore 96-well plates pretreated with 0.02% polyethylenimine. The binding buffer for rat Y2 binding is Krebs-Ringer bicarbonate (pH 7.4) containing 0.01% BSA and 0.005% bacitracin. Samples consist of membrane protein, 25 pM [1251]PYY and drug dilution. Nonspecific binding is defined by 1 μM NPY. The binding buffer for human Y4/PP1 binding consists of 137 mM NaCl, 5.4 mM KCl, 0.44 mM KH2PO4, 1.26 mM CaCl2, 0.81 mM MgSO4, 20 mM HEPES, 1 mM dithiothreitol, 0.1% bacitracin, 100 mg/l streptomycin sulfate, 1 mg/l aprotinin, 10 mg/ml soybean trypsin inhibitor and 0.3% BSA, pH 7.4. Samples consist of membrane protein, 50 pM human [1251]human PP (hPP: NEN DuPont, Boston, Mass.) and drug dilution. 1 μM hPP is used to define nonspecific binding.
After a 2 hour incubation at room temperature with constant mixing, the samples are aspirated on a vacuum manifold, and rinsed with ice-cold binding buffer. The amount of radioactivity in each well is quantitated with either gamma counting or liquid scintillation.

Rat NPY5 receptor = target: T4, Rat NPY5 receptor (Rattus norvegicus, UniProt Q63634); experiment: Rat NPY5 receptor binding assay ([125I]PYY, membrane protein)
T4 sequence (Q63634 1-445): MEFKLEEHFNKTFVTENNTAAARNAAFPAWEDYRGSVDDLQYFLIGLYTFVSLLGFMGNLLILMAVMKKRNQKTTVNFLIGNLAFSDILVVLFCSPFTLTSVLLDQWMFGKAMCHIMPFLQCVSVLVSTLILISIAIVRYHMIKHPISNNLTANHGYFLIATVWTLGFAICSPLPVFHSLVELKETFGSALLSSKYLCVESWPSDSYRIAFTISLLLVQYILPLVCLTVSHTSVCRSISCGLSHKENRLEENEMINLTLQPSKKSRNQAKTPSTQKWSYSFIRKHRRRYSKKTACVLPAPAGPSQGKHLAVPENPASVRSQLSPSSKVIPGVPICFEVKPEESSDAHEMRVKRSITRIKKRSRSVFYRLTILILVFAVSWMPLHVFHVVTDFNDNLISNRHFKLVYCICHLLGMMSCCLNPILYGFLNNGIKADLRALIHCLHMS
Method in brief: as §1

[1] = [125I]PYY, read-out: hNPY5 IC50
[2] = [125I]PYY, read-out: rNPY5 IC50

Sequence of human Y4/PP1 receptor (P50391 whole entry): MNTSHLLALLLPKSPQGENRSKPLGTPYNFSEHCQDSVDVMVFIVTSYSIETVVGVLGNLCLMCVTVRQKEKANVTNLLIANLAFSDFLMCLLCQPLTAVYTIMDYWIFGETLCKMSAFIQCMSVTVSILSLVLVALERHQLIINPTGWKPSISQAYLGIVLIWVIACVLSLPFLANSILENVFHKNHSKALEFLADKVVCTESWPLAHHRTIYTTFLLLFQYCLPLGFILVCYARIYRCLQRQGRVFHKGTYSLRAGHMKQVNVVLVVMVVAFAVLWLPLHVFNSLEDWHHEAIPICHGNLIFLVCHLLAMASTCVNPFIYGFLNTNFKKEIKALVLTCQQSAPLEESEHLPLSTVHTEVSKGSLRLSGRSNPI

O=C(CNCCCn1c(=O)[nH]c2ccccc21)Nc1ccc(-c2ccccc2)cc1 [Compound 277, N-Biphenyl-4-yl-2-[3-(2-oxo-2,3-dihydro-benzoimidazol-1-yl)-propylamino]-acetamide]
IC50 (Human NPY1 receptor): > 5 µM | IC50 (Y2 receptor): > 5 µM | IC50 (Human NPY5 receptor; [1]): 890 nM | IC50 (human Y4/PP1 receptor): > 5 µM | IC50 (Rat NPY5 receptor; [2]): 1600 nM

O=C(Nc1ccc(C2CCCCC2)cc1)C(c1ccccc1)N1CCC(n2c(=O)[nH]c3ccccc32)CC1 (centres unmarked) [Compound 313, N-(4-Cyclohexyl-phenyl)-2-[4-(2-oxo-2,3-dihydro-benzoimidazol-1-yl)-piperidin-1-yl]-2-phenyl-acetamide]
IC50 (Human NPY1 receptor): > 5 µM | IC50 (Y2 receptor): > 5 µM | IC50 (Human NPY5 receptor; hNPY5 IC50, [125I]PYY): 35 nM | IC50 (human Y4/PP1 receptor): > 5 µM | IC50 (Rat NPY5 receptor; rNPY5 IC50, [125I]PYY): 20 nM

O=C(CN1CCC(n2c(=O)[nH]c3ccccc32)CC1)Nc1ccccc1-c1ccccc1 [Compound 324, N-Biphenyl-2-yl-2-[4-(2-oxo-2,3-dihydro-benzoimidazol-1-yl)-piperidin-1-yl]-acetamide; hydrochloride]
IC50 (Human NPY1 receptor): > 5 µM | IC50 (Y2 receptor): > 5 µM | IC50 (Human NPY5 receptor; [1]): 390 nM | IC50 (human Y4/PP1 receptor): > 5 µM | IC50 (Rat NPY5 receptor; [2]): 690 nM

O=C(CN1CCC(n2c(=O)[nH]c3ccccc32)CC1)Nc1ccc2c(c1)Cc1ccccc1-2 [Compound 325, N-(9H-Fluoren-2-yl)-2-[4-(2-oxo-2,3-dihydro-benzoimidazol-1-yl)-piperidin-1-yl]-acetamide]
IC50 (Human NPY1 receptor): > 5 µM | IC50 (Y2 receptor): > 5 µM | IC50 (Human NPY5 receptor; [1]): 6 nM | IC50 (human Y4/PP1 receptor): > 5 µM | IC50 (Rat NPY5 receptor; [2]): 4 nM

CC(C(=O)Nc1ccc(-c2ccccc2)cc1)N1CCC(n2c(=O)[nH]c3ccccc32)CC1 (centres unmarked) [Compound 329, N-Biphenyl-4-yl-2-[4-(2-oxo-2,3-dihydro-benzoimidazol-1-yl)-piperidin-1-yl]-propionamide; hydrochloride]
IC50 (Human NPY1 receptor): > 5 µM | IC50 (Y2 receptor): > 5 µM | IC50 (Human NPY5 receptor; [1]): 20 nM | IC50 (human Y4/PP1 receptor): > 5 µM | IC50 (Rat NPY5 receptor; [2]): 16 nM

Nc1cc(S(=O)(=O)c2ccccc2)ccc1NC(=O)CN1CCC(n2c(=O)[nH]c3ccccc32)CC1 [Compound 335, N-(2-Amino-4-benzenesulfonyl-phenyl)-2-[4-(2-oxo-2,3-dihydro-benzoimidazol-1-yl)-piperidin-1-yl]-acetamide, reference compound]
IC50 (Human NPY1 receptor): > 5 µM | IC50 (Y2 receptor): > 5 µM | IC50 (Human NPY5 receptor; [1]): 110 nM | IC50 (human Y4/PP1 receptor): > 5 µM | IC50 (Rat NPY5 receptor; [2]): 98 nM

CCN(CC)c1ccc(NC(=O)CN2CCC(n3c(=O)[nH]c4ccccc43)CC2)cc1 [Compound 336, N-(4-Diethylamino-phenyl)-2-[4-(2-oxo-2,3-dihydro-benzoimidazol-1-yl)-piperidin-1-yl]-acetamide, reference compound]
IC50 (Human NPY1 receptor): > 5 µM | IC50 (Y2 receptor): > 5 µM | IC50 (Human NPY5 receptor; [1]): 220 nM | IC50 (human Y4/PP1 receptor): > 5 µM | IC50 (Rat NPY5 receptor; [2]): 205 nM

CN(C)c1cccc(NC(=O)CN2CCC(n3c(=O)[nH]c4ccccc43)CC2)c1 [Compound 338, reference compound]
IC50 (Human NPY1 receptor): > 5 µM | IC50 (Y2 receptor): > 5 µM | IC50 (Human NPY5 receptor; [1]): 910 nM | IC50 (human Y4/PP1 receptor): > 5 µM | IC50 (Rat NPY5 receptor; [2]): 1200 nM

CCCCOc1ccc2ccc(NC(=O)CN3CCC(n4c(=O)[nH]c5ccccc54)CC3)cc2c1 [Compound 343, N-(7-Butoxy-naphthalen-2-yl)-2-[4-(2-oxo-2,3-dihydro-benzoimidazol-1-yl)-piperidin-1-yl]-acetamide, reference compound]
IC50 (Human NPY1 receptor): > 5 µM | IC50 (Y2 receptor): > 5 µM | IC50 (Human NPY5 receptor; [1]): 110 nM | IC50 (human Y4/PP1 receptor): > 5 µM | IC50 (Rat NPY5 receptor; [2]): 45 nM

O=C(CN1CCC(n2c(=O)[nH]c3ccccc32)CC1)Nc1ccc2cn[nH]c2c1 [Compound 344, N-(1H-Indazol-6-yl)-2-[4-(2-oxo-2,3-dihydro-benzoimidazol-1-yl)-piperidin-1-yl]-acetamide, reference compound]
IC50 (Human NPY1 receptor): > 5 µM | IC50 (Y2 receptor): > 5 µM | IC50 (Human NPY5 receptor; [1]): 2700 nM | IC50 (human Y4/PP1 receptor): > 5 µM | IC50 (Rat NPY5 receptor; [2]): 1700 nM

CCOc1ccc(NC(=O)CN2CCC(n3c(=O)[nH]c4ccccc43)CC2)cc1 [Compound 347, N-(4-Ethoxy-phenyl)-2-[4-(2-oxo-2,3-dihydro-benzoimidazol-1-yl)-piperidin-1-yl]-acetamide, reference compound]
IC50 (Human NPY1 receptor): > 5 µM | IC50 (Y2 receptor): > 5 µM | IC50 (Human NPY5 receptor; [1]): 143 nM | IC50 (human Y4/PP1 receptor): > 5 µM | IC50 (Rat NPY5 receptor; [2]): 130 nM

O=C(CN1CCC(n2c(=O)[nH]c3ccccc32)CC1)Nc1ccccc1Cl [Compound 348, N-(2-Chloro-phenyl)-2-[4-(2-oxo-2,3-dihydro-benzoimidazol-1-yl)-piperidin-1-yl]-acetamide, reference compound]
IC50 (Human NPY1 receptor): > 5 µM | IC50 (Y2 receptor): > 5 µM | IC50 (Human NPY5 receptor; [1]): 1200 nM | IC50 (human Y4/PP1 receptor): > 5 µM | IC50 (Rat NPY5 receptor; [2]): > 10000 nM

NC(=O)c1ccc(NC(=O)CN2CCC(n3c(=O)[nH]c4ccccc43)CC2)cc1 [Compound 350, 4-(2-[4-(2-Oxo-2,3-dihydro-benzoimidazol-1-yl)-piperidin-1-yl]-acetylamino)-benzamide, reference compound]
IC50 (Human NPY1 receptor): > 5 µM | IC50 (Y2 receptor): > 5 µM | IC50 (Human NPY5 receptor; [1]): 2300 nM | IC50 (human Y4/PP1 receptor): > 5 µM | IC50 (Rat NPY5 receptor; [2]): 1400 nM
